Measured values: patent publication US10849990B2 (priority 2018, dated 2020)

Legend:
SPR-KO mice [1] = details: mouse, in vivo
SPR-KO mice [2] = assay: Tremor test in SPR-KO mice; details: mouse, in vivo
VL neurons = assay: In vivo spike recording of spontaneous rebound firing in SPR-KO mice; details: mouse

SMILES	motor problems (akinesia, gait disturbance, tremor) (SPR-KO mice [1])	abnormal motor functions (tremor score) (SPR-KO mice [2])	spontaneous rebound firing of VL neurons (VL neurons)
N[C@@H](Cc1ccc(O)c(O)c1)C(=O)O [L-DOPA]	ameliorated		
CCC1(C)CC(=O)NC1=O (stereo not drawn) [ethosuximide]		ameliorated	reduced spontaneous rebound firing
